The source made the active and inactive calls. The rule behind the calls is not given here.
Legend:
[1] = Half life in Sprague-Dawley rat liver microsomes in presence of NADPH by UPLC/MS analysis
Mus musculus = assay: Reversal of scopolamine-induced memory impairment in ICR mouse assessed as increase in step-through latency time at 5 mg/kg, po administered for 10 consecutive days and 60 mins prior to training trial followed by scopolamine challenge at 30 mins post dose measured 24 hrs after training trial by passive avoidance test; type: functional, organism-based
BV-2 = assay: Antineuroinflammatory activity in mouse BV2 cells assessed as inhibition of LPS-induced NO production at 10 to 30 uM after 24 hrs by Griess assay; type: functional, cell-based
[2] = Antioxidant activity assessed as DPPH radical scavenging activity measured after 30 mins incubation in dark by UV-Visible spectrophotometric analysis; type: functional
Homo sapiens = organism: Homo sapiens; assay: Selectivity index, ratio of IC50 for human serum BuChE to IC50 for human erythrocyte AChE
PC-12 [3] = assay: Cytotoxicity against rat PC12 cells assessed as decrease in cell viability at 30 uM after 24 hrs by MTT assay; type: cell-based; settings: pc-12, 24 h
[4] = Antioxidant activity assessed as trolox equivalent of AAPH-induced radical scavenging activity preincubated for 15 mins followed by AAPH addition measured every minute for 120 mins by ORAC-FL based fluorescein assay; type: functional
Cholinesterase [5] = target: T1, Cholinesterase (Homo sapiens, UniProt P06276); assay: Inhibition of human serum BuChE using butyrylthiocholine iodide as substrate incubated for 5 mins followed by substrate addition measured after 180 secs by Ellman's method; settings: read-out: IC50
PC-12 [6] = assay: Cytotoxicity against rat PC12 cells assessed as decrease in cell viability at 20 uM after 24 hrs by MTT assay; type: cell-based; settings: pc-12, 24 h
Acetylcholinesterase [7] = target: Acetylcholinesterase (Electrophorus electricus, UniProt O42275); assay: Inhibition of electric eel AChE using acetylthiocholine chloride as substrate incubated for 5 mins followed by substrate addition measured after 180 secs by Ellman's method
Acetylcholinesterase [8] = target: T2, Acetylcholinesterase (Homo sapiens, UniProt P22303); assay: Inhibition of human erythrocyte AChE using acetylthiocholine chloride as substrate incubated for 5 mins followed by substrate addition measured after 180 secs by Ellman's method
[9] = Antioxidant activity assessed as ABTS radical cation scavenging activity by measuring trolox equivalent antioxidant capacity measured at 6 mins; type: functional
[10] = target: Acetylcholinesterase (Electrophorus electricus) (UniProt O42275); assay: Inhibition of electric eel AChE at 100 uM using acetylthiocholine chloride as substrate incubated for 5 mins followed by substrate addition measured after 180 secs by Ellman's method relative to control
[11] = target: Cholinesterase (Equus caballus) (UniProt P81908); assay: Inhibition of equine serum BuChE at 100 uM using butyrylthiocholine iodide as substrate incubated for 5 mins followed by substrate addition measured after 180 secs by Ellman's method relative to control
Cholinesterase [12] = target: T1, Cholinesterase; assay: Inhibition of human serum BuChE at 100 uM using butyrylthiocholine iodide as substrate incubated for 5 mins followed by substrate addition measured after 180 secs by Ellman's method relative to control
[13] = target: T3, Amine oxidase [flavin-containing] B (Homo sapiens, UniProt P27338); assay: Inhibition of human MAO-B using p-tyramine as substrate incubated for 15 mins followed by substrate addition measured for 20 mins by fluorescence assay
T3 sequence (P27338 whole entry): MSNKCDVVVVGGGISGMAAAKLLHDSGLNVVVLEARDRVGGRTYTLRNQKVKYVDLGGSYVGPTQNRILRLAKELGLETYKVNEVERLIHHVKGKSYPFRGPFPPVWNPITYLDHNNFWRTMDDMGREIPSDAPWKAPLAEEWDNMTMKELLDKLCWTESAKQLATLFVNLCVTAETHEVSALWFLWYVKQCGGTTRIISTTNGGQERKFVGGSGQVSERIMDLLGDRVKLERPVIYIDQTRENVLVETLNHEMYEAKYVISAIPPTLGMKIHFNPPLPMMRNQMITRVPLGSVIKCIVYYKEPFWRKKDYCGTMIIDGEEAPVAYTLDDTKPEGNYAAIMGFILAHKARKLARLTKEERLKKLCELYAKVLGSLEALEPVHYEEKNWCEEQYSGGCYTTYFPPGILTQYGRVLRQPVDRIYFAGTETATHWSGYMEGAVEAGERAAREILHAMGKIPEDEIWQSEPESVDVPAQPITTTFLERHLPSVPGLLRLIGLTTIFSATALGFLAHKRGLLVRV

Acetylcholinesterase [14] = target: T2, Acetylcholinesterase; assay: Inhibition of human erythrocyte AChE at 100 uM using acetylthiocholine chloride as substrate incubated for 5 mins followed by substrate addition measured after 180 secs by Ellman's method relative to control
[15] = target: T4, Amine oxidase [flavin-containing] A (Homo sapiens, UniProt P21397); assay: Inhibition of human MAO-A at 100 uM using p-tyramine as substrate incubated for 15 mins followed by substrate addition measured for 20 mins by fluorescence assay relative to control
T4 sequence (P21397 whole entry): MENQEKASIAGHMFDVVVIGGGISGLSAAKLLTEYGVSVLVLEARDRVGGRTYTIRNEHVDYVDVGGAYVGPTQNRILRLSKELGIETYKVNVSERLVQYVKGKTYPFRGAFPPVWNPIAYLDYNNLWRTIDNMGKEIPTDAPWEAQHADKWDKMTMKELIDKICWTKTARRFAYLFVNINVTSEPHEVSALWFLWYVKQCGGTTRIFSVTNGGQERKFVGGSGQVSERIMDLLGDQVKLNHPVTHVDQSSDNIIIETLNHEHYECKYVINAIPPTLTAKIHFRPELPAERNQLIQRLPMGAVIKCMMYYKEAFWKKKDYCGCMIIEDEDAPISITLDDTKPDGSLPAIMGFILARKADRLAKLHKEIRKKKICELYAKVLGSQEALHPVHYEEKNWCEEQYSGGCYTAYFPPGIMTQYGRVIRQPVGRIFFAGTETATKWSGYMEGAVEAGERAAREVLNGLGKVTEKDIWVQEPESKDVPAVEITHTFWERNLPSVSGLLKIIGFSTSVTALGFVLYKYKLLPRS

Cholinesterase [16] = target: Cholinesterase (Equus caballus, UniProt P81908); assay: Inhibition of equine serum BuChE using butyrylthiocholine iodide as substrate incubated for 5 mins followed by substrate addition measured after 180 secs by Ellman's method
[17] = Antioxidant activity assessed as DPPH radical scavenging activity at 100 uM measured after 30 mins incubation in dark by UV-Visible spectrophotometric analysis relative to control; type: functional
[18] = target: T4, Amine oxidase [flavin-containing] A; assay: Inhibition of human MAO-A using p-tyramine as substrate incubated for 15 mins followed by substrate addition measured for 20 mins by fluorescence assay
[19] = target: Amyloid-beta precursor protein (Homo sapiens) (UniProt P05067); assay: Inhibition of AChE-induced amyloid beta 40 (unknown origin) aggregation at 100 uM by thioflavin-T fluorescence assay relative to control
Acetylcholinesterase [20] = target: T2, Acetylcholinesterase; assay: Mixed-type inhibition of human AChE using acetylthiocholine chloride as substrate incubated for 5 mins followed by substrate addition by Lineweaver-Burk plot analysis
PC-12 [21] = assay: Neuroprotective activity against H2O2-induced oxidative stress in rat PC12 cells assessed as increase in cell viability pretreated for 4 hrs followed by H2O2 challenge measured after 24 hrs by MTT assay; type: functional, cell-based
[22] = target: Amyloid-beta precursor protein (Homo sapiens) (UniProt P05067); assay: Inhibition of self-induced amyloid beta 42 (unknown origin) aggregation at 20 uM incubated for 46 to 48 hrs by thioflavin-T fluorescence assay relative to control
[23] = target: T3, Amine oxidase [flavin-containing] B; assay: Inhibition of human MAO-B at 100 uM using p-tyramine as substrate incubated for 15 mins followed by substrate addition measured for 20 mins by fluorescence assay relative to control

Sequence of Cholinesterase (Equus caballus, UniProt P81908) (P81908 whole entry): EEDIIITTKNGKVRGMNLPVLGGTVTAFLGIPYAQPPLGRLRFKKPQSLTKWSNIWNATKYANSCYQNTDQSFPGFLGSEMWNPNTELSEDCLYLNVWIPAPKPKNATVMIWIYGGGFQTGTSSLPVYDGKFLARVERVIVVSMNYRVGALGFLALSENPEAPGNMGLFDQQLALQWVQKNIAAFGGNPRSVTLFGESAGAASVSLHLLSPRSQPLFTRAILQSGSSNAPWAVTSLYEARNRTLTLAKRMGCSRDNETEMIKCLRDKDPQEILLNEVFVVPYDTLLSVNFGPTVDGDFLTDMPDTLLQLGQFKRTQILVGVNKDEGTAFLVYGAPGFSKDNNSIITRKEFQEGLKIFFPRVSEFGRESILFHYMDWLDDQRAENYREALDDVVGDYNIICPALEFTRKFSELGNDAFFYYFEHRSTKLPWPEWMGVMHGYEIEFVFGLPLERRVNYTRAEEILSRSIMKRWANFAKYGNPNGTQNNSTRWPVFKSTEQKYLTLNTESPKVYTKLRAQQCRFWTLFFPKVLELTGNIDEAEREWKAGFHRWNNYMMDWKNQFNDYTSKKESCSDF
Sequence of Cholinesterase (Equus caballus) (P81908 whole entry): as above
T1 sequence (P06276 whole entry): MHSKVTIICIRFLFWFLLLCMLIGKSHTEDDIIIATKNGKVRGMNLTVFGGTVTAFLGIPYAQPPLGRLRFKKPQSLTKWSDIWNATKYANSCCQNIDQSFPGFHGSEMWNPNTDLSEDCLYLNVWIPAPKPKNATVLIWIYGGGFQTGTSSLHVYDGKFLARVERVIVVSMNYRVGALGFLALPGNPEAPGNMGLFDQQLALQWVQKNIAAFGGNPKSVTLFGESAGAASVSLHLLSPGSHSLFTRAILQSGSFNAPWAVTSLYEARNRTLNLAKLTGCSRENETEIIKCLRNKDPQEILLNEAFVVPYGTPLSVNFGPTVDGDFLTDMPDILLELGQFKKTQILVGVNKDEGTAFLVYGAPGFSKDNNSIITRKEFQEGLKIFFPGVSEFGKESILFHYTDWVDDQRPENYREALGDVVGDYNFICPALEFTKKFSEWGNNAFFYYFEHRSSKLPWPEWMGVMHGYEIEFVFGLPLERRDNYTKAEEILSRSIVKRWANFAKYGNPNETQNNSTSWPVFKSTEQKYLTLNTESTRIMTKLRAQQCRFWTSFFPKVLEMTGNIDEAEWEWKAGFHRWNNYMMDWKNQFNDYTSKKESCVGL
T2 sequence (P22303 whole entry): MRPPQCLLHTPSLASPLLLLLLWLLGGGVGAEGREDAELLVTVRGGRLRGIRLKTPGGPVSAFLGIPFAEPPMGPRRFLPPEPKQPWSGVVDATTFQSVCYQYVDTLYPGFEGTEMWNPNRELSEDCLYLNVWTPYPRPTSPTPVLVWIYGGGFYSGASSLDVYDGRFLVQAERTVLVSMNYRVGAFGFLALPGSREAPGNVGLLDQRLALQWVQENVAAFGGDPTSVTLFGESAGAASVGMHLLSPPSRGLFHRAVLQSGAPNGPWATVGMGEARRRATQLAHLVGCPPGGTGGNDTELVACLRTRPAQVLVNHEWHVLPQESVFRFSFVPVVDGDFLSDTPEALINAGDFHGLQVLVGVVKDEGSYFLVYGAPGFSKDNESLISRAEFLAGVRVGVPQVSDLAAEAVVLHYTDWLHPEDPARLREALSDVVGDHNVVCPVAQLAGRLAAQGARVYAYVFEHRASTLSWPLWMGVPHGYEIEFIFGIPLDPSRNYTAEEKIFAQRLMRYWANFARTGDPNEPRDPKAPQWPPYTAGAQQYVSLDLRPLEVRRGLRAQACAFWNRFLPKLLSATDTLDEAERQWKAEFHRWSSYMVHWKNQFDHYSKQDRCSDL
Sequence of Acetylcholinesterase (Electrophorus electricus, UniProt O42275) (O42275 whole entry): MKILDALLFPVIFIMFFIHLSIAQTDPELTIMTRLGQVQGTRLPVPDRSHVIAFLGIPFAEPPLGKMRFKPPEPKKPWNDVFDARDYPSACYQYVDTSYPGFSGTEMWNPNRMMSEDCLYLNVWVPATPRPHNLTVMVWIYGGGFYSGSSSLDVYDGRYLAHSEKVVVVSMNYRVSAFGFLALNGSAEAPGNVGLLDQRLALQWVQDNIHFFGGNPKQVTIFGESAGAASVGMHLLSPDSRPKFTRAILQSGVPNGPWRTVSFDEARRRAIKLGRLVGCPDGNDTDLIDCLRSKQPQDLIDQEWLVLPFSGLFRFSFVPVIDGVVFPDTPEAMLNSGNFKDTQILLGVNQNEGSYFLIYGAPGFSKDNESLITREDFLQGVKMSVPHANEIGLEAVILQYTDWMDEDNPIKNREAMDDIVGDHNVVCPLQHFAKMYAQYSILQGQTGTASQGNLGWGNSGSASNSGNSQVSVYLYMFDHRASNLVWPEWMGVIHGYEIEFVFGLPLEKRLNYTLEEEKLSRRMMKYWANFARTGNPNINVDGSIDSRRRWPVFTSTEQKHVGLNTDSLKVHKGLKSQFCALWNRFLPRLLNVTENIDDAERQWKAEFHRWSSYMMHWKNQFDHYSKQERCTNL
Sequence of Acetylcholinesterase (Electrophorus electricus) (O42275 24-633 limits assumed): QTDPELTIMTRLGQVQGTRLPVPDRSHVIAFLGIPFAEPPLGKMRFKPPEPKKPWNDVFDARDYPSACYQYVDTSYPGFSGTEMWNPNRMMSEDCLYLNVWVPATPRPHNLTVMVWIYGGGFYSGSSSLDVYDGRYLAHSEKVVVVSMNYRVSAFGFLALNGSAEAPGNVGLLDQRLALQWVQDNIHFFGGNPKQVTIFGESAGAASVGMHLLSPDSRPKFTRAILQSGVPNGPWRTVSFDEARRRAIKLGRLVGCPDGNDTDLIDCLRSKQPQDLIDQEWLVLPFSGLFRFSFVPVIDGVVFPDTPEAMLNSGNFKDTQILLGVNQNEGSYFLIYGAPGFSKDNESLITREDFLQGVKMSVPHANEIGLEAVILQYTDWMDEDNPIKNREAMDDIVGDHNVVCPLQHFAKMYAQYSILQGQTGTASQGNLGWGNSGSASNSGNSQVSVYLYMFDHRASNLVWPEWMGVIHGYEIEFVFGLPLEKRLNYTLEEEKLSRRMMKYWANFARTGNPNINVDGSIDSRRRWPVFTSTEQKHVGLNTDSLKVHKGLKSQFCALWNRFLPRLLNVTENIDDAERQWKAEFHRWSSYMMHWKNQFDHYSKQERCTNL
Sequence of Amyloid-beta precursor protein (Homo sapiens) (P05067 whole entry): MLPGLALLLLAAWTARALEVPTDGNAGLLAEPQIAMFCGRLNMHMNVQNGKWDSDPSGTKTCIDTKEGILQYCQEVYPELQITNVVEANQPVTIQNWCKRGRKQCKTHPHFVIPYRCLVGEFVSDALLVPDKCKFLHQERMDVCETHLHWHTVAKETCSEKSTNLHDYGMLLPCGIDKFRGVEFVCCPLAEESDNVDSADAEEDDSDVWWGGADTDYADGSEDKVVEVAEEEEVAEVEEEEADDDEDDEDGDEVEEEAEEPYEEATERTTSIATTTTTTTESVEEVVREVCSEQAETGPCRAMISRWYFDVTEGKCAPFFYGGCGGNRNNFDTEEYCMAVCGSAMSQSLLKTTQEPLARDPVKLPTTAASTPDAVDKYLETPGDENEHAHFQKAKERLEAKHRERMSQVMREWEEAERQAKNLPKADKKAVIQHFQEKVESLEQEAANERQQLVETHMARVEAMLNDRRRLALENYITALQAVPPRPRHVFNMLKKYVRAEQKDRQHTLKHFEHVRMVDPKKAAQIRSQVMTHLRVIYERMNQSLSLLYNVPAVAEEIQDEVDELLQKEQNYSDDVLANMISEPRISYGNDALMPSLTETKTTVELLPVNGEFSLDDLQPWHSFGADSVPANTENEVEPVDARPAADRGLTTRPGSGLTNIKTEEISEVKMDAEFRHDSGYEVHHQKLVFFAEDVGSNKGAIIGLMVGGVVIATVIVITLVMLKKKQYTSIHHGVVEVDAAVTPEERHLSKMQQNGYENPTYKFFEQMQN

SMILES	IC50 [2] [µM]	Ratio IC50 (Homo sapiens)	Activity (PC-12 [3])	Activity (mmolequiv/mmol) [4]	IC50 (Cholinesterase [5]) [µM]	Activity (PC-12 [6])	IC50 (Acetylcholinesterase [7]) [µM]	IC50 (Acetylcholinesterase [8]) [µM]	Activity (mmolequiv/mmol) [9]	inhibition [11] [%]	inhibition (Cholinesterase [12]) [%]	IC50 [13] [µM]	inhibition (Acetylcholinesterase [14]) [%]	inhibition at 100 µM [15] [%]	IC50 (Cholinesterase [16]) [µM]	Activity [17] [%]	IC50 [18] [µM]	other results
COc1cc2c(cc1OC)C(=O)C(CC1CCN(Cc3ccccc3)CC1)C2 (stereo unspecified) [DONEPEZIL]	–	–	–	–	–	–	–	–	–	–	–	–	–	–	–	–	–	half-life ([1]; microsomes): 1.21 h; Activity (Mus musculus): Active; inhibition (BV-2): inactive
O=C(/C=C/c1ccccc1)NCCC1CCN(Cc2ccccc2)CC1	> 200	3.7	Toxic	0.72	1.67	Non-Toxic	0.55	0.45	0.31	–	–	–	–	–	–	–	–	–
CC(C)(C)c1cc(CCC(=O)NCC2CCN(Cc3ccccc3)CC2)cc(C(C)(C)C)c1O	63.4	–	–	0.97	–	–	–	–	0.63	14.6	14	89.1	12.6	38.4	–	–	–	inhibition [10]: 27.4%
CC(C)(C)c1cc(C(=O)CNCCC2CCN(Cc3ccccc3)CC2)cc(C(C)(C)C)c1O	–	14	–	0.31	19.6	–	2.44	1.38	0.27	–	–	92.1	–	–	48.5	26.7	95.2	–
O=C(/C=C/c1ccc(O)cc1)NCCC1CCN(Cc2ccccc2)CC1	72.1	0.49	Toxic	1.81	1.22	Non-Toxic	0.81	2.51	0.55	–	–	–	–	–	1.26	–	–	–
CC(C)(C)c1cc(/C=C/C(=O)NCCC2CCN(Cc3ccccc3)CC2)cc(C(C)(C)C)c1O	81.7	38	Toxic	1.52	84.8	Non-Toxic	0.53	2.23	0.91	48	–	8.5	–	–	–	–	62.3	inhibition [19]: 38.4%; Ki (Acetylcholinesterase [20]): 3.2 µM; Activity (PC-12 [21]): Dose-dependent effect; inhibition [22]: 43.5 to 56.7%
C[C@]12CC[C@H]3[C@@H](CCC4=CC(=O)CC[C@@]43C)[C@@H]1CC[C@@H]2O [TESTOSTERONE]	–	–	–	–	–	–	–	–	–	–	–	–	–	–	–	–	–	half-life ([1]; liver microsomes): < 0.0833 h
CC(C)(C)c1cc(C(=O)CNCC2CCN(Cc3ccccc3)CC2)cc(C(C)(C)C)c1O	–	4	–	0.36	9.61	–	6.43	2.44	0.28	–	–	–	–	–	5.38	24.2	41.5	inhibition at 100 µM [23]: 42%
CC(C)(C)c1cc(C(=O)NCC2CCN(Cc3ccccc3)CC2)cc(C(C)(C)C)c1O	–	–	–	1.47	–	–	–	–	0.65	8.61	23.1	–	15.7	15.8	–	48.2	–	inhibition [10]: 38.1%; inhibition at 100 µM [23]: 16.1%
CC(C)(C)c1cc(C(=O)NC2CCN(Cc3ccccc3)CC2)cc(C(C)(C)C)c1O	–	–	–	1.53	–	–	55.6	–	0.74	34.6	19.6	85.1	20.1	49.2	–	47.4	–	–

From ChEMBL document CHEMBL4270597, “Donepezil-butylated hydroxytoluene (BHT) hybrids as Anti-Alzheimer's disease agents with cholinergic, antioxidant, and neuroprotective properties” (Eur J Med Chem, 2018)
